Measured values as given in patent US20230340607A1, “COMPOSITIONS AND METHODS FOR DETECTING GENE FUSIONS OF RAD51AP1 AND DYRK4 AND FOR DIAGNOSING AND TREATING CANCER” (UNIVERSITY OF PITTSBURGH-OF THE COMMONWEALTH SYSTEM OF …, priority 2020, published 2023).
“Also recorded” adds a separate entry of the source.

Legend:
Assay type in all cases: cell-based, human
HCC1937 cells = assay: Clonogenic assay, HCC1937 cells; conditions: HCC1937 overexpressing RAD51AP1-DYRK4, compared to MCF7, HCC38, HCC1428, and ZR-75-30 cell lines
Protocol: (§1) Since MDAMB361 is a HER2 positive cell line we also assessed the therapeutic effect of lapatinib treatment alone or in combination with trametinib.
(§2) Clonogenic assay. The E9-E2 and wtRAD51AP1 expressing T47D cells were seeded at a density of 1000 cells/well in a 6-well plate with or without 200 ng/ml doxycycline treatment and incubated for 14-21 days. The colonies were stained with 0.5% crystal violet in 50% ethanol and counted using GelCount (Oxford Optronix Ltd.). The Trametinib (MEKi) and Lapatinib (EGFR/HER2 inhibitor) used for in vitro therapeutic studies were purchased from Selleck Chemicals. To test their therapeutic effects in the engineered T47D cells and other cell lines, cells (5000-10000, depending on the doubling time) were plated in 24-well for 24 hours prior to treatment with growth media containing trametinib, lapatinib or DMSO was replaced every 4 days for approximately 2 weeks. After this, cells were stained with 0.5% crystal violet in water containing 50% ethanol for 15 minutes at room temperature. The area and intensity of each well was measured using Image J. with Colony Area Plug In.

[1] = system: MAP3K1 protein level and JNK-JUN phosphorylation; assay: Western blot of engineered T47D cells after trametinib: MAP3K1/JNK/JUN; conditions: 0.5uM trametinib, 24 hours
Protocol: (§3) Compensative HER2/PI3K/AKT and MAP3K1/JNK/JUN activation has been reported to mediate resistance to MEK inhibitors (Avivar-Valderas, A. et al. (2018); Maher, C.A. et al. (2009)). We thus examined if RAD51AP1-DYRK4 and wtRAD51AP1 differentially modulate these survival pathways following MEK inhibition. To test this, we treated the engineered T47D cells with 0.5uM of trametinib or vehicle for 24 hours, to assess the early signaling changes following trametinib treatment. […] In contrast, this compensatory signaling was activated in T47D cells overexpressing wtRAD51AP1 following MEK inhibition (FIG. 7A). In addition, RAD51AP1-DYRK4 also repressed MAP3K1 protein level and JNK-JUN phosphorylation under MEK inhibition.
(§4) Western blot. For immunoblot analysis, E9-E2 and wtRAD51AP1 expression was induced in transduced T47D cells with 200 ng/ml doxycycline for one week. Total proteins were extracted by homogenizing the cells in RIPA Lysis Buffer (Sigma-Aldrich), supplemented with complete protease inhibitor cocktail tablet (Roche Diagnostics), 50 mM beta-Glycerophosphate, 1 mM sodium orthovanadate, 1 mM sodium fluoride, and 1 mM PMSF. Thirty micrograms of protein extracts were denatured in sample buffer, separated by SDS-PAGE, and transferred onto a nitrocellulose membrane (Invitrogen). The membranes were blocked and incubated overnight at 4° C. with primary antibodies. […]

MDAMB361 cells = assay: Clonogenic assay, MDAMB361 cells
Protocol: as §1, §2

[2] = system: HER2/PI3K/AKT/Raptor activation; assay: Western blot of engineered T47D cells after trametinib: HER2/PI3K/AKT/Raptor; conditions: 0.5uM trametinib, 24 hours
Protocol: as §3, §4

[3] = system: T47D cells inducibly expressing RAD51AP1-DYRK4 (E9-E2); assay: Clonogenic assay, T47D cells inducibly expressing RAD51AP1-DYRK4 (E9-E2)
Protocol: (§5) Next, the sensitivity of the engineered T47D cells inducibly expressing RAD51AP1-DYRK4 or wtRAD51AP1 to MEK inhibition was assessed. The first FDA approved MEK inhibitor currently under phase II clinical trial for triple negative breast cancer (NCI 9455) called Trametinib was used for MEK inhibition. MEK inhibition requires longer term drug exposure to exert therapeutic effect (Xue, Z. et al. (2018)). Therefore, clonogenic assays on the T47D models were performed to assess the cell viability following trametinib treatment in the presence or absence of doxycycline induction. Since T47D cells express EGFR, the cells were also treated with lapatinib to observe the combinatory effect.
as §2

[4] = system: T47D cells inducibly expressing wtRAD51AP1; assay: Clonogenic assay, T47D cells inducibly expressing wtRAD51AP1; conditions: induction of wtRAD51AP1 expression
Protocol: as §5
Clonogenic assay. The E9-E2 and wtRAD51AP1 expressing T47D cells were seeded at a density of 1000 cells/well in a 6-well plate with or without 200 ng/ml doxycycline treatment and incubated for 14-21 days. The colonies were stained with 0.5% crystal violet in 50% ethanol and counted using GelCount (Oxford Optronix Ltd.). The Trametinib (MEKi) and Lapatinib (EGFR/HER2 inhibitor) used for in vitro therapeutic studies were purchased from Selleck Chemicals. […] The area and intensity of each well was measured using Image J. with Colony Area Plug In.

[5] = T47D cells overexpressing RAD51AP1-DYRK4

Row | Compound | sensitivity to trametinib treatment (clonogenic assay) (HCC1937 cells) | MAP3K1/JNK/JUN signaling following MEK inhibition (Western blot) ([1]; T47D cells ectopically expressing wtRAD51AP1) | MAP3K1 protein level and JNK-JUN phosphorylation under MEK inhibition (Western blot) [1, 5] | sensitivity to trametinib treatment (clonogenic assay) (MDAMB361 cells; MDAMB361 overexpressing RAD51AP1-DYRK4, compared to MCF7, HCC38, HCC1428, and ZR-75-30 cell lines) | HER2/PI3K/AKT/Raptor activation under MEK inhibition (Western blot) [2, 5] | compensatory HER2/PI3K/AKT/Raptor signaling following MEK inhibition (Western blot) ([2]; T47D cells overexpressing wtRAD51AP1) | sensitivity to trametinib (clonogenic assay, cell viability) ([3]; T47D cells, doxycycline-induced ectopic RAD51AP1-DYRK4 (E9-E2) expression vs absence of induction) | increased sensitivity to trametinib (clonogenic assay, cell viability) [4] | increased sensitivity to trametinib (clonogenic assay, cell viability) ([4]; listed as Trametinib) | therapeutic effect of lapatinib alone (clonogenic assay) (MDAMB361 cells; MDAMB361, HER2 positive) | therapeutic effect of lapatinib in combination with trametinib (clonogenic assay) (MDAMB361 cells; MDAMB361, combination with trametinib) | therapeutic benefit of lapatinib alone (clonogenic assay) ([3]; engineered T47D cells) | therapeutic benefit of lapatinib in combination with trametinib (clonogenic assay) ([3]; engineered T47D cells, combination with trametinib)
1 | CC(=O)Nc1cccc(-n2c(=O)n(C3CC3)c(=O)c3c(Nc4ccc(I)cc4F)n(C)c(=O)c(C)c32)c1 [trametinib] | markedly higher sensitivity | did not observe activation | repressed | markedly higher sensitivity | attenuates | activated; also recorded: compensatory activation | significantly increased sensitivity | not observed | not | – | – | – | –
2 | CS(=O)(=O)CCNCc1ccc(-c2ccc3ncnc(Nc4ccc(OCc5cccc(F)c5)c(Cl)c4)c3c2)o1 [lapatinib, Lapatinib] | – | – | – | – | – | – | – | – | – | highly resistant; also recorded: resistance | highly sensitive | did not result in additional therapeutic benefits; also recorded: did not show additional therapeutic benefits | did not result in additional therapeutic benefits; also recorded: did not show additional therapeutic benefits
